# Patent US20260315505A1, “COMBINED INHIBITION OF TYROSINE PHOSPHATASES TCPTP AND PTP1B AND PD-1 BLOCKAGE IMMUNOTHERAPY IN THE TREATMENT OF CANCER” (Kanyr Pharma Inc., priority 2022, published 2026)
# Like-named read-outs stand apart in the source and are kept apart here.
# Experiments:
# [1] = test system: E.G7 targets (lysis by CD8 T cells / CTLs); experiment: in vitro cytotoxicity of CTLs against OVA expressing E.G7 thymoma cells; format: cell-based, mouse; settings: C57BL/6 CTLs; relative to Inh1; FIG. 12C
# Excerpt: FIG. 5A Illustrates that pharmacological inhibition of TCPTP and PTP1B results in enhanced cytotoxicity and effector differentiation. CD8 T cells from OT-1 mice were activated/expanded by αCD3/αCD28 antibodies and IL-2 in the presence of different concentrations of TCPTP/PTP1B inhibitor (Inh1) for 5 days. Specific cytotoxicity against OVA expressing E.G7 thymoma cells was measure.
# FIG. 12C illustrates the specific cytotoxicity against OVA expressing E.G7 thymoma cells from 5-day C57BL/6 CTLs treated with Inh1 or Inh2 at the concentrations specified. (one of three experiments shown).
# To understand the functional capabilities of the CD8 T cells with combined deficiency of TCPTP and PTP1B, the conditional mutant mice of Example 1 were bred with OT-1 transgenic mice. […] Effector CD8 T cells also contribute to the immune response by the secretion of cytokines as IFN-γ, consequently the presence of this cytokine in the supernatant of target cell stimulated CTLs by ELISA was measured. An increase of the secretion of IFN-γ was detected in TCPTP and PTP1B single deficient cells at low effector to target ratios which was more stepped in the […] cells (FIG. 3C). […]
# As the differentiation state of CD8 T cells was altered in the various genotypes analyzed before, how treatment with Inh1 altered the expression of differentiation markers was determined by flow cytometric analysis (FIGS. 5D and 5E). […]
# [2] = mice; cited from earlier work
# [3] = humans; phase 1 clinical studies; cited from earlier work
smiles,measurement,setting,value
N#CCc1ccc2cc(Br)c(C(F)(F)P(=O)(O)O)cc2c1 [Inh2],concentration inducing similar biological activity to Inh1,[1],5 times lower
same,systemic tolerability,[2],tolerated systemically
same,systemic tolerability,[3],tolerated systemically
